In ChEMBL document CHEMBL6103622 (J Med Chem, 2025):
The source made the active and inactive calls. The calls are words filed in the database; no cut-off is given here.

How the values were obtained:
[1] = Clearance in Sprague-Dawley rat at 1 mg/kg, iv; assay type: ADME, organism-based; conditions: in vivo
[2] = target: T1, Macrophage colony-stimulating factor 1 receptor (Mus musculus) (UniProt P09581); experiment: Induction of thermal stabilization of CSF-1R in female C57BL/6 mouse BMDM cells assessed as increase in melting temperature at 100 nM incubated for 1 hrs under 52 to 68 degreeC by CETSA; assay type: cell-based
T1 sequence (whole entry): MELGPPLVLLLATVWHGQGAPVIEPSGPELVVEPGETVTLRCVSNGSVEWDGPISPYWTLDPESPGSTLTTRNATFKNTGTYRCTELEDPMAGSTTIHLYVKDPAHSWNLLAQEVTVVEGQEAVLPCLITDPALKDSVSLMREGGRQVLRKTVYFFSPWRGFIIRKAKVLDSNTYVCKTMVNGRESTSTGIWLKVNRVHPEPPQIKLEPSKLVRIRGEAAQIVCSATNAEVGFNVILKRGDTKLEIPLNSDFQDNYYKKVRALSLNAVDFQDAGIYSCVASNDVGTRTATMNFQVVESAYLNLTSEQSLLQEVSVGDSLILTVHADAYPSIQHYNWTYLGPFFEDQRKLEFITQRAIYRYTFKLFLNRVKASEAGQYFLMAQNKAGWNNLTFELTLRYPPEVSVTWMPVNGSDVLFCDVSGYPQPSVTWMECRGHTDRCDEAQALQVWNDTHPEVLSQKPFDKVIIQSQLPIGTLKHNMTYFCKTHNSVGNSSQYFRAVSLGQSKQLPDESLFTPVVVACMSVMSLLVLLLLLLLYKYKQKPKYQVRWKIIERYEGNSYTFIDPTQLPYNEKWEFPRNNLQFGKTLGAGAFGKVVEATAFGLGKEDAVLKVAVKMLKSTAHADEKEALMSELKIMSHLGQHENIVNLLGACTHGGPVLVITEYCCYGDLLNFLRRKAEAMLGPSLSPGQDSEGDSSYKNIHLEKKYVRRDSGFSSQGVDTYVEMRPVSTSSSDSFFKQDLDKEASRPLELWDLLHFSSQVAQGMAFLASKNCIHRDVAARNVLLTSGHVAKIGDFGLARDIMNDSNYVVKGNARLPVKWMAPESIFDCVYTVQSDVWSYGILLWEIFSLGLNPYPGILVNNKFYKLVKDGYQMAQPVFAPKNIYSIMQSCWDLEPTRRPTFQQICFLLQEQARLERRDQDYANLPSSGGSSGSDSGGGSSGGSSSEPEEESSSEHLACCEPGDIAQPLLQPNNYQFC

[3] = tested on: MC-38; experiment: Antitumor activity against mouse MC38 cells allografted in C57BL/6 mouse model assessed as downregulation of Arg1 mRNA expression in tumor at 10 to 20 mg/kg, ip administered once daily for 14 days by qPCR analysis; assay type: functional, organism-based; conditions: dose 10-20 mg/kg, time 14.0 day
[4] = Toxicity in C57BL/6 mouse model allografted with mouse MC38 cells assessed as body weight loss at 10 to 20 mg/kg, ip administered once daily for 14 days; assay type: organism-based; conditions: in vivo, 336 h, dose 10-20 mg/kg, time 14 day
[5] = tested on: MC-38; experiment: Induction of apoptosis in mouse MC38 cells assessed as late apoptotic cells at 10 nM by Annexin V/PI staining based flow cytometric analysis (reference value: 0.85 %); assay type: functional
[6] = tested on: MC-38; experiment: Induction of apoptosis in mouse MC38 cells cocultured with condition medium of M2 macrophages assessed as early apoptotic cells at 30 nM by Annexin V/PI staining based flow cytometric analysis (reference value: 3.16 %); assay type: functional
[7] = tested on: BMDM; experiment: (§1) Induction of repolarization of M2 like macrophage into M1 phenotype in female C57BL/6 mouse BMDM cells assessed as decrease in Rental mRNA expression at 10 to 100 nM stimulated with mouse IL4/IL-13 for 24 hrs followed by compound addition and measured after 24 hrs by qPCR analysis; assay type: functional, cell-based; conditions: dose 10-100 nM
[8] = target: T1, Macrophage colony-stimulating factor 1 receptor (Mus musculus); experiment: Inhibition of CSF-1R signaling pathway activation in female C57BL/6 mouse BMDM cells assessed as reduction in ERK phosphorylation preincubated with compounds for 4 hrs followed by M-CSF stimulation and measured after 30 mins by Western blot analysis; assay type: cell-based; conditions: dose 10-100 nM, time 4.5 hrs
[9] = tested on: BMDM; experiment: Induction of repolarization of M2 like macrophage into M1 phenotype in female C57BL/6 mouse BMDM cells assessed as increase in Il6 mRNA expression at 10 to 100 nM stimulated with mouse IL4/IL-13 for 24 hrs followed by compound addition and measured after 24 hrs by qPCR analysis; assay type: functional, cell-based; conditions: dose 10-100 nM
[10] = target: Macrophage colony-stimulating factor 1 receptor (Homo sapiens, UniProt P07333); experiment: Binding affinity to recombinant CSF-1R (unknown origin) assessed as association rate constant by SPR analysis
[11] = tested on: BMDM; experiment: Induction of repolarization of M2 like macrophage into M1 phenotype in female C57BL/6 mouse BMDM cells assessed as increase in Nos2 mRNA expression at 10 to 100 nM stimulated with mouse IL4/IL-13 for 24 hrs followed by compound addition and measured after 24 hrs by qPCR analysis; assay type: functional, cell-based; conditions: dose 10-100 nM
[12] = tested on: MC-38; experiment: Inhibition of cell viability in mouse MC38 cells cocultured with condition medium of M2 macrophages at 10 to 100 nM by MTT assay; assay type: functional, cell-based; conditions: dose 10-100 nM
[13] = target: NT-3 growth factor receptor (Homo sapiens) (UniProt Q16288); experiment: Inhibition of TRKC (unknown origin) at 1 uM
[14] = tested on: MC-38; experiment: Inhibition of cell proliferation in mouse MC38 cells at 10 to 100 nM incubated for 20 hrs by CCK8 assay; assay type: functional, cell-based; conditions: dose 10-100 nM
[15] = tested on: MC-38; experiment: Antitumor activity against mouse MC38 cells allografted in C57BL/6 mouse model assessed as upregulation of Tnf mRNA expression in tumor at 10 to 20 mg/kg, ip administered once daily for 14 days by qPCR analysis; assay type: functional, organism-based; conditions: dose 10-20 mg/kg, time 14.0 day
[16] = tested on: MC-38; experiment: Antitumor activity against mouse MC38 cells allografted in C57BL/6 mouse model assessed as downregulation of Chil3l mRNA expression in tumor at 10 to 20 mg/kg, ip administered once daily for 14 days by qPCR analysis; assay type: functional, organism-based; conditions: dose 10-20 mg/kg, time 14.0 day
[17] = tested on: MC-38; experiment: Induction of apoptosis in mouse MC38 cells cocultured with condition medium of M2 macrophages assessed as early apoptotic cells at 10 nM by Annexin V/PI staining based flow cytometric analysis (reference value: 3.16 %); assay type: functional
[18] = tested on: MC-38; experiment: Antitumor activity against mouse MC38 cells allografted in C57BL/6 mouse model assessed as reduction in tumor volume at 20 mg/kg, ip administered once daily for 14 days relative to control; assay type: functional; parameters: scale not given: the % may be the effect or the level left; conditions: time 14 day
[19] = tested on: MC-38; experiment: Antitumor activity against mouse MC38 cells allografted in C57BL/6 mouse model assessed as upregulation of Il6 mRNA expression in tumor at 10 to 20 mg/kg, ip administered once daily for 14 days by qPCR analysis; assay type: functional, organism-based; conditions: dose 10-20 mg/kg, time 14.0 day
[20] = tested on: MC-38; experiment: Induction of apoptosis in mouse MC38 cells assessed as early apoptotic cells at 100 nM by Annexin V/PI staining based flow cytometric analysis (reference value: 1.91 %); assay type: functional
[21] = AUC (0 to t) in Sprague-Dawley rat at 1 mg/kg, iv; assay type: ADME, organism-based; conditions: in vivo
[22] = tested on: BMDM; experiment: as §1, with “number of M2 macrophages by measuring reduction in CD206” for “Rental mRNA”, “immunofluorescence” for “qPCR”; assay type: functional, cell-based; conditions: dose 10-100 nM

Sequence of NT-3 growth factor receptor (Homo sapiens) (Q16288 32-839 limits assumed): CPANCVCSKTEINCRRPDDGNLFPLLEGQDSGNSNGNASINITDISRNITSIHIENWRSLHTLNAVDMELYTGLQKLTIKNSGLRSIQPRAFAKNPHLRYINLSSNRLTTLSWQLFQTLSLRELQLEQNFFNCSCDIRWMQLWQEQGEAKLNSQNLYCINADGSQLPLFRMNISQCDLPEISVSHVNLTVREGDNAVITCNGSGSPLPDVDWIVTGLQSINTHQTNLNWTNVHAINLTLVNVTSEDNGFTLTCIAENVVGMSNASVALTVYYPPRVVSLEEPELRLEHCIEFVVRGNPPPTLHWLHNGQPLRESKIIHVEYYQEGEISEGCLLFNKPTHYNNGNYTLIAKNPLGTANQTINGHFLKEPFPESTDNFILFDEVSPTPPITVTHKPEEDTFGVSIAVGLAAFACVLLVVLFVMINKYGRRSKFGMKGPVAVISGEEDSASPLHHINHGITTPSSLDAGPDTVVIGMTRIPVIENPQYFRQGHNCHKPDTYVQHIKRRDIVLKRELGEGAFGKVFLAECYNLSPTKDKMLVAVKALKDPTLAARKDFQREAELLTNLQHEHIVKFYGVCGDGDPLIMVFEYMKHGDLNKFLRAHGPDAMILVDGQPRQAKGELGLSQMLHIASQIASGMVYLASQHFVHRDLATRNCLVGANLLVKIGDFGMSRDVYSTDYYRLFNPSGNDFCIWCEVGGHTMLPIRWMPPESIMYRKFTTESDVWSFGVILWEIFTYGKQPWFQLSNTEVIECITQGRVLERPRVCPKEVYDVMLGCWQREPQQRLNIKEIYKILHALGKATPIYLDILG
Sequence of Macrophage colony-stimulating factor 1 receptor (P07333 whole entry): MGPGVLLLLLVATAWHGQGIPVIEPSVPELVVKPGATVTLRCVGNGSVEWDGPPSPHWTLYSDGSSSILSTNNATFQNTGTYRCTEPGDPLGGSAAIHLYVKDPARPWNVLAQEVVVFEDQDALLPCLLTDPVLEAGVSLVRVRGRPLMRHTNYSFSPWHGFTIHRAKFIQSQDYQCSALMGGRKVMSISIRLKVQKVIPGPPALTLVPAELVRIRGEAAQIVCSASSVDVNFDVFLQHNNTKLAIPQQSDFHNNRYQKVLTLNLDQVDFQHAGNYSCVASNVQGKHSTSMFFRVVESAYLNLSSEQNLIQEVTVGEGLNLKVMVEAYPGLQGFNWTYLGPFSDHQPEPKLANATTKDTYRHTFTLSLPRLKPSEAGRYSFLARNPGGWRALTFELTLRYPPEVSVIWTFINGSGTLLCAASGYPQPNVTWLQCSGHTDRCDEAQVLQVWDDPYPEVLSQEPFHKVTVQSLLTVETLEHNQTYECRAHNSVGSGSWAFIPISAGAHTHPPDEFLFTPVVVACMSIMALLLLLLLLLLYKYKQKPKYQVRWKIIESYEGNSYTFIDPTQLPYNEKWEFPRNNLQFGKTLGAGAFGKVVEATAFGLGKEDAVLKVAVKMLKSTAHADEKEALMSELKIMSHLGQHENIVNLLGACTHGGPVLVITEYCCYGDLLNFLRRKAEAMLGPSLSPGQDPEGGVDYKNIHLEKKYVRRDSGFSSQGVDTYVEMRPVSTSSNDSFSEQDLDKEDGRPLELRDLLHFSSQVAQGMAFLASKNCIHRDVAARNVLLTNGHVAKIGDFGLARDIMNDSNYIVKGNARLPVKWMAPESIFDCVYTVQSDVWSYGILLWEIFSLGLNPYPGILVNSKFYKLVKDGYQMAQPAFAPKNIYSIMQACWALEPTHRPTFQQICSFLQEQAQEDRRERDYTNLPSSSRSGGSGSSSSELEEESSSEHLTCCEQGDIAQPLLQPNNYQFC

clearance [1]: 31.9 mL/min/kg
Activity [2]: Active
inhibition [8]: Dose-dependent-effect
Ka [10]: 1.07 10^5/Ms
inhibition [13]: Active
AUC(0-t) [21]: 526 ng·h/mL
SMILES: Cc1nc(NC(=O)N[C@@H]2CCCC[C@H]2O)ccc1Oc1c[nH]c2ncc(Cl)cc12
Activity [3]: Active
Activity [4]: Non-toxic
Activity [5]: 0.72%
Activity [6]: 13.61%
Activity [7]: Active
Activity [9]: Active
Activity [11]: Active
inhibition [12]: Active
inhibition [14]: Minimal_effect
Activity [15]: Active
Activity [16]: Active
Activity [17]: 6.15%
Activity [18]: 54%
Activity [19]: Active
Activity [20]: 2.03%
Activity [22]: Active
